pKi: −log10 of the molar value. Where two headings read alike, the source gives them in different places. Numbered stars: 1 amine (or outer) side, 2 acyl side, 3 side chain; on linkers, the order of the positions; unused ones are H or OH. Square brackets hold non-standard residues; d marks the D form. Peptide text beside a SMILES is read from it. * marks the point of attachment. DOTA(Lu)NH(CH2)6NHCOCH2 = O=C(CN1CCN2CCN3CCN(CC1)CC(=O)[O][Lu]([O]C(=O)C2)[O]C(=O)C3)NCCCCCCNC(=O)C*; dTrp(βS-Me) = C[C@@H](c1c[nH]c2ccccc12)[C@@H](N)C(=O)O; Phe(3-CONH2) = NC(=O)c1cccc(C[C@H](N)C(=O)O)c1; dTrp(6-F) = N[C@H](Cc1c[nH]c2cc(F)ccc12)C(=O)O; X4 = C[C@@H](c1ccccc1)[C@H](N[*:1])C(=O)[*:2]; Phe(2-CONH2) = NC(=O)c1ccccc1C[C@H](N)C(=O)O; Phe(3R-Me) = C[C@H](c1ccccc1)[C@H](N)C(=O)O; Tyr(3-F) = N[C@@H](Cc1ccc(O)c(F)c1)C(=O)O; X21 = CC(c1ccccc1)[C@H](N[*:1])C(=O)[*:2]; X22 = O=C([C@H](Cc1ccc(O)nc1)N[*:1])[*:2]; 3Pal = N[C@@H](Cc1cccnc1)C(=O)O; 4Pal = N[C@@H](Cc1ccncc1)C(=O)O; NMehCys = CN[C@@H](CCS)C(=O)O
Target: SSTR2 (Homo sapiens, UniProt P30874)
Sequence (P30874 whole entry): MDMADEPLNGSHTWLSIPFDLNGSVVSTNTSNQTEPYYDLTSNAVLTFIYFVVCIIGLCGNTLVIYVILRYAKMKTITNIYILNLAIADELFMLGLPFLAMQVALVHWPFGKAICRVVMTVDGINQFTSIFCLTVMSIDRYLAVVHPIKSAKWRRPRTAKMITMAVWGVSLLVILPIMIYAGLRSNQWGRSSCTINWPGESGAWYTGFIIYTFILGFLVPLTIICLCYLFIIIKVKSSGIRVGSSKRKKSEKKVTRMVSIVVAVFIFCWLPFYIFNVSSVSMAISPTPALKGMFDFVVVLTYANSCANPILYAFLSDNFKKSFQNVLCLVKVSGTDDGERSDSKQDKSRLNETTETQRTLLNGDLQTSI
Assay: SSTR binding affinity by radioligand binding competition assay ([125I]-Tyr11-Somatostatin, membrane extracts)
Conditions: radioligand competition, [125I]-Tyr11-Somatostatin 0.1 nM, membrane extracts, Ki from IC50 by Cheng Prusoff
Description: Macrocyclic peptides in this invention were tested for binding to SSTR protein by a radioligand binding competition assay. For radioligand binding assay, competition binding is performed in duplicate in the wells of a 96 well plate containing binding buffer (HEPES 25 mM pH 7.4, MgCl2 5 mM, CaCl2 1 mM, BSA 0.5%, Saponine 10 μg/ml)), membrane extracts (0.6 μg protein/well), radiotracer ([125I]-Tyr11-Somatostatin, Perkin Elmer NEX389) and test compound. Nonspecific binding is determined by co-incubation with 200-fold excess of cold competitor (SST28). The samples are incubated in a final volume of 0.1 ml for 60 min at room temperature and then filtered over UniFilter-96 GF/C (Revvity 6055690) filter plates. Filters are washed six times with 0.5 ml of ice-cold washing buffer (HEPES 25 mM pH 7.4, MgCl2 5 mM, CaCl2 1 mM) and 50 μl of Microscint 20 (Packard) are added in each well. The plates are incubated 15 min on an orbital shaker and then counted with a TopCount™ for 1 min/well. For IC50 to Ki determination, the Cheng Prusoff equation is used: Ki=IC50/(1+ [tracer]/Kd). [Tracer] is 0.1 nM as mentioned above.

Row | Compound | pKi (read-out: SSTR2 Ki) | pKi (SSTR2 Ki)
1 | C[C@H](c1ccccc1)[C@@H]1NC(=O)[C@H](CCSCC(=O)NCCCCCCNC(=O)CN2CCN3CCN4CCN(CC2)CC(=O)[O][Lu]([O]C(=O)C3)[O]C(=O)C4)N(C)C(=O)[C@H](Cc2ccccc2)NC(=O)[C@H]([C@@H](C)O)NC(=O)[C@H](CCCCN)NC(=O)[C@@H](Cc2c[nH]c3ccccc23)NC1=O [RB-0003137] (cyclo(F[NMehCys](DOTA(Lu)NH(CH2)6NHCOCH2)[Phe(3R-Me)][dW]KT)) | > 9.00 | 
2 | C[C@@H](O)[C@@H]1NC(=O)[C@H](CCCCN)NC(=O)[C@@H]([C@@H](C)c2c[nH]c3ccccc23)NC(=O)[C@H](Cc2ccc(O)cc2)NC(=O)[C@H](CCSCC(=O)NCCCCCCNC(=O)CN2CCN3CCN4CCN(CC2)CC(=O)[O][Lu]([O]C(=O)C3)[O]C(=O)C4)N(C)C(=O)[C@H](Cc2ccccc2)NC1=O [RB-0003148] (cyclo(F[NMehCys](DOTA(Lu)NH(CH2)6NHCOCH2)Y[dTrp(βS-Me)]KT)) | > 9.00 | 
3 | C[C@@H](O)[C@@H]1NC(=O)[C@H](CCCCN)NC(=O)[C@@H](Cc2c[nH]c3ccccc23)NC(=O)[C@H](Cc2ccc(O)cc2)NC(=O)[C@H](CSCC(=O)NCCCCCCNC(=O)CN2CCN3CCN4CCN(CC2)CC(=O)[O][Lu]([O]C(=O)C3)[O]C(=O)C4)N(C)C(=O)[C@H](Cc2ccccc2)NC1=O [RB-0003164] |  | 8.48 to 9.00
4 | C[C@@H](O)[C@@H]1NC(=O)[C@H](CCCCN)NC(=O)[C@@H](Cc2c[nH]c3ccccc23)NC(=O)[C@H](Cc2ccc(O)cc2)NC(=O)[C@H](CCCCNC(=O)[C@H]2CC[C@H](CNC(=O)CN3CCN4CCN5CCN(CC3)CC(=O)[O][Lu]([O]C(=O)C4)[O]C(=O)C5)CC2)N(C)C(=O)[C@H](Cc2ccccc2)NC1=O [RB-0003246] |  | 8.48 to 9.00
5 | C[C@@H](O)[C@@H]1NC(=O)[C@H](CCCCN)NC(=O)[C@@H](Cc2c[nH]c3ccccc23)NC(=O)[C@H](Cc2ccc(O)cc2)NC(=O)[C@H](CCCCNC(=O)COCCOCCOCCNC(=O)CN2CCN3CCN4CCN(CC2)CC(=O)[O][Lu]([O]C(=O)C3)[O]C(=O)C4)N(C)C(=O)[C@H](Cc2ccccc2)NC1=O [RB-0003248] |  | 8.00 to 8.48
6 | C[C@@H](O)[C@@H]1NC(=O)[C@H](CCCCN)NC(=O)[C@@H](Cc2c[nH]c3ccccc23)NC(=O)[C@H](Cc2ccc(O)cc2)NC(=O)[C@H](CCSCC(=O)NCCCCCCNC(=O)CN2CCN3CCN4CCN(CC2)CC(=O)[O][Lu]([O]C(=O)C3)[O]C(=O)C4)N(C)C(=O)[C@H](Cc2cccnc2)NC1=O [RB-0003276] (cyclo([3Pal][NMehCys](DOTA(Lu)NH(CH2)6NHCOCH2)Y[dW]KT)) | 8.00 to 8.48 | 
7 | C[C@@H](O)[C@@H]1NC(=O)[C@H](CCCCN)NC(=O)[C@@H](Cc2c[nH]c3ccccc23)NC(=O)[C@H](Cc2ccc(O)cc2)NC(=O)[C@H](CCSCC(=O)NCCCCCCNC(=O)CN2CCN3CCN4CCN(CC2)CC(=O)[O][Lu]([O]C(=O)C3)[O]C(=O)C4)N(C)C(=O)[C@H](Cc2ccncc2)NC1=O [RB-0003277] (cyclo([4Pal][NMehCys](DOTA(Lu)NH(CH2)6NHCOCH2)Y[dW]KT)) | 8.48 to 9.00 | 
8 | C[C@@H](O)[C@@H]1NC(=O)[C@H](CCCCN)NC(=O)[C@@H](Cc2c[nH]c3ccccc23)NC(=O)[C@H](Cc2ccc(O)cc2)NC(=O)[C@H](CCSCC(=O)NCCCCCCNC(=O)CN2CCN3CCN4CCN(CC2)CC(=O)[O][Lu]([O]C(=O)C3)[O]C(=O)C4)N(C)C(=O)[C@H]([C@@H](C)c2ccccc2)NC1=O [RB-0003278] (cyclo(KT[X4][NMehCys](DOTA(Lu)NH(CH2)6NHCOCH2)Y[dW])) | 8.48 to 9.00 | 
9 | C[C@@H](O)[C@@H]1NC(=O)[C@H](CCCCN)NC(=O)[C@@H](Cc2c[nH]c3ccccc23)NC(=O)[C@H](Cc2ccc(O)cc2)NC(=O)[C@H](CCSCC(=O)NCCCCCCNC(=O)CN2CCN3CCN4CCN(CC2)CC(=O)[O][Lu]([O]C(=O)C3)[O]C(=O)C4)N(C)C(=O)[C@H](Cc2ccc(O)nc2)NC1=O [RB-0003279] (cyclo(KT[X22][NMehCys](DOTA(Lu)NH(CH2)6NHCOCH2)Y[dW])) | 8.00 to 8.48 | 
10 | C[C@@H](O)[C@@H]1NC(=O)[C@H](CCCCN)NC(=O)[C@@H](Cc2c[nH]c3ccccc23)NC(=O)[C@H](Cc2ccc(O)c(F)c2)NC(=O)[C@H](CCSCC(=O)NCCCCCCNC(=O)CN2CCN3CCN4CCN(CC2)CC(=O)[O][Lu]([O]C(=O)C3)[O]C(=O)C4)N(C)C(=O)[C@H](Cc2ccccc2)NC1=O [RB-0003280] (cyclo(F[NMehCys](DOTA(Lu)NH(CH2)6NHCOCH2)[Tyr(3-F)][dW]KT)) | > 9.00 | 
11 | CC(c1ccccc1)[C@@H]1NC(=O)[C@H]([C@@H](C)O)NC(=O)[C@H](CCCCN)NC(=O)[C@@H](Cc2c[nH]c3ccccc23)NC(=O)[C@H](Cc2ccc(O)cc2)NC(=O)[C@H](CCSCC(=O)NCCCCCCNC(=O)CN2CCN3CCN4CCN(CC2)CC(=O)[O][Lu]([O]C(=O)C3)[O]C(=O)C4)N(C)C1=O (stereo partly drawn) [RB-0003281] (cyclo(KT[X21][NMehCys](DOTA(Lu)NH(CH2)6NHCOCH2)Y[dW])) | 8.00 to 8.48 | 
12 | C[C@@H](O)[C@@H]1NC(=O)[C@H](CCCCN)NC(=O)[C@@H](Cc2c[nH]c3ccccc23)NC(=O)[C@H](Cc2ccc(O)cc2)NC(=O)[C@H](CCCCNC(=O)CN2CCN3CCN4CCN(CC2)CC(=O)[O][Lu]([O]C(=O)C3)[O]C(=O)C4)N(C)C(=O)[C@H](Cc2ccccc2)NC1=O [RB-0003292] |  | > 9.00
13 | C[C@@H](O)[C@@H]1NC(=O)[C@H](CCCCN)NC(=O)[C@@H](Cc2c[nH]c3ccccc23)NC(=O)[C@H](Cc2ccc(O)cc2)NC(=O)[C@H](CCCCNC(=O)COCCOCCNC(=O)CN2CCN3CCN4CCN(CC2)CC(=O)[O][Lu]([O]C(=O)C3)[O]C(=O)C4)N(C)C(=O)[C@H](Cc2ccccc2)NC1=O [RB-0003294] |  | 8.48 to 9.00
14 | C[C@@H](O)[C@@H]1NC(=O)[C@H](CCCCN)NC(=O)[C@@H](Cc2c[nH]c3ccccc23)NC(=O)[C@H](Cc2ccc(O)cc2)NC(=O)[C@H](CCCCNC(=O)CCCCCCCNC(=O)CN2CCN3CCN4CCN(CC2)CC(=O)[O][Lu]([O]C(=O)C3)[O]C(=O)C4)N(C)C(=O)[C@H](Cc2ccccc2)NC1=O [RB-0003296] |  | 8.48 to 9.00
15 | C[C@@H](O)[C@@H]1NC(=O)[C@H](CCCCN)NC(=O)[C@@H](Cc2c[nH]c3ccccc23)NC(=O)[C@H](Cc2ccc(O)cc2)NC(=O)[C@H](CCCCNC(=O)CCCCC[C@H](NC(=O)CN2CCN3CCN4CCN(CC2)CC(=O)[O][Lu]([O]C(=O)C3)[O]C(=O)C4)C(=O)O)N(C)C(=O)[C@H](Cc2ccccc2)NC1=O [RB-0003298] |  | 8.00 to 8.48
16 | C[C@@H](O)[C@@H]1NC(=O)[C@H](CCCCN)NC(=O)[C@@H](Cc2c[nH]c3ccccc23)NC(=O)[C@H](Cc2cccc(C(N)=O)c2)NC(=O)[C@H](CCSCC(=O)NCCCCCCNC(=O)CN2CCN3CCN4CCN(CC2)CC(=O)[O][Lu]([O]C(=O)C3)[O]C(=O)C4)N(C)C(=O)[C@H](Cc2ccccc2)NC1=O [RB-0003302] (cyclo(F[NMehCys](DOTA(Lu)NH(CH2)6NHCOCH2)[Phe(3-CONH2)][dW]KT)) | 8.00 to 8.48 | 
17 | C[C@@H](O)[C@@H]1NC(=O)[C@H](CCCCN)NC(=O)[C@@H](Cc2c[nH]c3ccccc23)NC(=O)[C@H](Cc2ccccc2C(N)=O)NC(=O)[C@H](CCSCC(=O)NCCCCCCNC(=O)CN2CCN3CCN4CCN(CC2)CC(=O)[O][Lu]([O]C(=O)C3)[O]C(=O)C4)N(C)C(=O)[C@H](Cc2ccccc2)NC1=O [RB-0003304] (cyclo(F[NMehCys](DOTA(Lu)NH(CH2)6NHCOCH2)[Phe(2-CONH2)][dW]KT)) | 8.00 to 8.48 | 
18 | C[C@@H](O)[C@@H]1NC(=O)[C@H](CCCCN)NC(=O)[C@@H](Cc2c[nH]c3ccccc23)NC(=O)[C@H](Cc2ccc(O)cc2)NC(=O)[C@H](CCSCC(=O)NCCCCCCNC(=O)CN2CCN3CCN4CCN(CC2)CC(=O)[O][Lu]([O]C(=O)C3)[O]C(=O)C4)N(C)C(=O)[C@H](Cc2cccc(C(N)=O)c2)NC1=O [RB-0003306] (cyclo(KT[Phe(3-CONH2)][NMehCys](DOTA(Lu)NH(CH2)6NHCOCH2)Y[dW])) | 8.48 to 9.00 | 
19 | C[C@@H](O)[C@@H]1NC(=O)[C@H](CCCCN)NC(=O)[C@@H](Cc2c[nH]c3cc(F)ccc23)NC(=O)[C@H](Cc2ccc(O)cc2)NC(=O)[C@H](CCSCC(=O)NCCCCCCNC(=O)CN2CCN3CCN4CCN(CC2)CC(=O)[O][Lu]([O]C(=O)C3)[O]C(=O)C4)N(C)C(=O)[C@H](Cc2ccccc2)NC1=O [RB-0003309] (cyclo(F[NMehCys](DOTA(Lu)NH(CH2)6NHCOCH2)Y[dTrp(6-F)]KT)) | > 9.00 | 
20 | C[C@H](O)[C@@H]1NC(=O)[C@H](CCCCN)NC(=O)[C@@H](Cc2c[nH]c3ccccc23)NC(=O)[C@H](Cc2ccc(O)cc2)NC(=O)[C@H](CCSCC(=O)NCCOCCOCCOCCNC(=O)CN2CCN3CCN4CCN(CC2)CC(=O)[O][Lu]([O]C(=O)C3)[O]C(=O)C4)N(C)C(=O)[C@H](Cc2ccccc2)NC1=O [RB-0003357] | > 9.00 | 
21 | C[C@@H](O)[C@@H]1NC(=O)[C@H](CCCCN)NC(=O)[C@@H](Cc2c[nH]c3ccccc23)NC(=O)[C@H](Cc2ccc(O)cc2)NC(=O)[C@H](CCSCCC(=O)NCCCCCCNC(=O)CN2CCN3CCN4CCN(CC2)CC(=O)[O][Lu]([O]C(=O)C3)[O]C(=O)C4)N(C)C(=O)[C@H](Cc2ccccc2)NC1=O [RB-0003374] | > 9.00 | 
